This is an account of results in patent publication US7335814B2, “Transgenic cells expressing glucosyltransferase nucleic acids” (The University of York, priority 2000, dated 2008).

Each structure is given as a SMILES string.

One assay has as its target T1, recombinant GTase A961 (Arabidopsis thaliana, UniProt O82381).
T1 construct: made in house; host or cells: E. coli
T1 sequence (O82381 1-481): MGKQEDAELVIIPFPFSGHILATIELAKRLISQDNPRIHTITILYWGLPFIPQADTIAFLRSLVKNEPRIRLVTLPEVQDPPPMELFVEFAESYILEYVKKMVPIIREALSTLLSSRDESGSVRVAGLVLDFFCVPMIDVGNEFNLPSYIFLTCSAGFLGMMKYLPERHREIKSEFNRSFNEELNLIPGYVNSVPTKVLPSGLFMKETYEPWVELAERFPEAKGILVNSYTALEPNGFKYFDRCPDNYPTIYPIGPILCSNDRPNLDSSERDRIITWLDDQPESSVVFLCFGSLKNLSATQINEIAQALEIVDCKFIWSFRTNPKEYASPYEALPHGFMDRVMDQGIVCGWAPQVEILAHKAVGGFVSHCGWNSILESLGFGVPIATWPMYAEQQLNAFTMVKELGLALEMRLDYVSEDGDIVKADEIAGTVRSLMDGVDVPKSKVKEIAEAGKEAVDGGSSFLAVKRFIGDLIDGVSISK
Description: Specific activity of recombinant GTase producing O-glucosides against lignin precursors (HPLC). In kind it is biochemical. Conditions: 30° C.; ND = not detected.

The target in another assay is T2, recombinant GTase A962 (Arabidopsis thaliana, UniProt O82382).
T2 construct: made in house; host or cells: E. coli
T2 sequence (O82382 1-474): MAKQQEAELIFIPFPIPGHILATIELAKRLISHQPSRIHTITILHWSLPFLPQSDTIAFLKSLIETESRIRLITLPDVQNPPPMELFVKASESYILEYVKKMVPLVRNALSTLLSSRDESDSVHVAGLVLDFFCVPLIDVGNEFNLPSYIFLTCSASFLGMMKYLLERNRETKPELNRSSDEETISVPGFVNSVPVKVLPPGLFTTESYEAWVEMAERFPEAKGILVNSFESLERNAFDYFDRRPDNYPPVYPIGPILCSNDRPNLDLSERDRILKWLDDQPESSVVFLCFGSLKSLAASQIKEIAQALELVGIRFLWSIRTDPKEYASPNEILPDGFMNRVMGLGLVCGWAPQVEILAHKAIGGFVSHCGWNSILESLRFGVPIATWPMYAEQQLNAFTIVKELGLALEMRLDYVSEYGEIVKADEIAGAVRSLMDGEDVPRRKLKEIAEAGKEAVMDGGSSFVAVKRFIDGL
Described as above. In kind it is biochemical. The following applies: 30° C.; ND = not detected.

As for `O=C(O)/C=C/c1ccc(O)cc1` [p-coumaric acid], the “Specific activity of A961 (substrate converted to 4-O-glucoside)” value at recombinant GTase A961 worked out at 0.01 nkat/mg. Besides, the “Specific activity of A962 (substrate converted to 4-O-glucoside)” value on recombinant GTase A962 worked out at 0.01 nkat/mg.
